# Experimental data published in US20170306409A1, “CANCER PATIENT SELECTION FOR ADMINISTRATION OF WNT SIGNALING INHIBITORS USING RNF43 MUTATION STATUS” (NOVARTIS AG, priority 2012, published 2017).
# Key:
# Type in all cases: cell-based, human
# Panc 05.04 = assay: cell line proliferation assay (Cell Titer Glo)
# Procedure: (§1) The sensitivity of pancreatic cells to LGK974 treatment were tested in a cellular proliferation assay in vitro. Twenty four human pancreatic cancer cell lines were treated with or without LGK974. Cellular proliferation data was generated in 384 well format. Cells were harvested and resuspended in their appropriate growth medium at a density of 1.5×10^4 cells per mL. […] Plates were then transferred to incubators on the ACP-1 system (37° C., 5% CO2) and cells were allowed to attach overnight. […] Following compound addition, plates were returned to the incubator for 120 hours. The assay plates were read with the addition of 10 μL of 1× Cell Titer Glo (Promega G7573) according to the manufacturer's instructions. Plates were then incubated at room temperature for ten minutes and read on the integrated Perkin Elmer Viewlux (2 second exposure, 2× bin, high sensitivity). The raw data was normalized using the DMSO control wells within each plate and the curve fitting for IC50 determination was performed. Cell growth was measured five days later with Cell Titer Glo (Promega). […] As shown in TABLE 4 and Example 4, all four cell lines harbor RNF43 loss-of-function (LOF) mutations
# Panc 03.27 = assay: cell line proliferation assay (Cell Titer Glo)
# Procedure: as §1
# HPAFII = assay: cell line proliferation assay (Cell Titer Glo)
# Procedure: as §1
# KP-2 = assay: cell line proliferation assay (Cell Titer Glo)
# Procedure: as §1
# PSN-1 = assay: cell line proliferation assay (Cell Titer Glo)
# Procedure: as §1
# Axin2, DanG = assay: Axin2 qPCR assay (pathway inhibition)
# Procedure: (§2) For reverse transcription and quantitative PCR (qPCR), total RNA was extracted from cells or tumors using the RNeasy Plus Mini Kit (Qiagen). 1 μg of RNA were reverse transcribed with Taqman Reverse Transcription Reagents (Applied Biosystems) according to the manufacturer's instruction. Quantitative PCR was performed in 12 μl reactions consisting of 0.6 μl of 20× Taqman probe and PCR primer mix, 6 μl 2× Taqman FAST Advanced Master Mix (Applied Biosystems), and 5.4 μl diluted cDNA template. The thermocycling conditions utilized were 20 seconds at 95° C., followed by 40 cycles of 1 second at 95° C. and 20 seconds at 60° C. All experiments were performed in quadruplicates. Gene expression analysis was performed using the comparative ΔΔCT method and normalized with the housekeeping gene GUSB or 18S. The Taqman probes were purchased from Applied Biosystems.
# Axin2, PaTu-8988S = assay: Axin2 qPCR assay (pathway inhibition)
# Procedure: as §2
# Axin2, Capan-1 = assay: Axin2 qPCR assay (pathway inhibition)
# Procedure: as §2
# Axin2, PaTu-8988T = assay: Axin2 qPCR assay (pathway inhibition)
# Procedure: as §2
# Axin2, Panc10.05 = assay: Axin2 qPCR assay (pathway inhibition)
# Procedure: as §2
# Axin2, PSN-1 = assay: Axin2 qPCR assay (pathway inhibition)
# Procedure: as §2
# Axin2, Panc03.27 = assay: Axin2 qPCR assay (pathway inhibition)
# Procedure: as §2
# Axin2, BxPC3 = assay: Axin2 qPCR assay (pathway inhibition)
# Procedure: as §2
# Axin2, HuPT3 = assay: Axin2 qPCR assay (pathway inhibition)
# Procedure: as §2
# Axin2, SUIT-2 = assay: Axin2 qPCR assay (pathway inhibition)
# Procedure: as §2
# Axin2, KP2 = assay: Axin2 qPCR assay (pathway inhibition)
# Procedure: as §2
# Axin2, PANC-1 = assay: Axin2 qPCR assay (pathway inhibition)
# Procedure: as §2
# Axin2, KP3 = assay: Axin2 qPCR assay (pathway inhibition)
# Procedure: as §2
# Axin2, SW1990 = assay: Axin2 qPCR assay (pathway inhibition)
# Procedure: as §2
# Axin2, PaTu-8902 = assay: Axin2 qPCR assay (pathway inhibition)
# Procedure: as §2
# Axin2, HPAFII = assay: Axin2 qPCR assay (pathway inhibition)
# Procedure: as §2
# Axin2, QGP-1 = assay: Axin2 qPCR assay (pathway inhibition)
# Procedure: as §2
# Axin2, Capan-2 = assay: Axin2 qPCR assay (pathway inhibition)
# Procedure: as §2
# Axin2, KP-1NL = assay: Axin2 qPCR assay (pathway inhibition)
# Procedure: as §2
# Axin2, T3M4 = assay: Axin2 qPCR assay (pathway inhibition)
# Procedure: as §2
# Axin2, CFPAC-1 = assay: Axin2 qPCR assay (pathway inhibition)
# Procedure: as §2
# Axin2, PK45H = assay: Axin2 qPCR assay (pathway inhibition)
# Procedure: as §2
# Axin2, MIA CaPa-2 = assay: Axin2 qPCR assay (pathway inhibition)
# Procedure: as §2
# Axin2, PL45 = assay: Axin2 qPCR assay (pathway inhibition)
# Procedure: as §2
# Axin2, HuPT4 = assay: Axin2 qPCR assay (pathway inhibition)
# Procedure: as §2
# Axin2, Panc05.04 = assay: Axin2 qPCR assay (pathway inhibition)
# Procedure: as §2
# Axin2, PK1 = assay: Axin2 qPCR assay (pathway inhibition)
# Procedure: as §2
# Axin2, Panc04.03 = assay: Axin2 qPCR assay (pathway inhibition)
# Procedure: as §2
smiles,measurement,setting,value
"Cc1cc(-c2ncc(CC(=O)Nc3ccc(-c4cnccn4)cn3)cc2C)ccn1 [LGK974, 2-[5-methyl-6-(2-methylpyridin-4-yl)pyridin-3-yl]-N-[5-(pyrazin-2-yl)pyridin-2-yl]acetamide]",IC50,"Panc 05.04; Homo sapiens, Panc 05.04, 120 hours, Cell Titer Glo, read-out: LGK974 IC50s in cell line proliferation assay",> 2000 nM
same,Inhibition fold change (1-Treated/Control),Panc 05.04; Panc05.04,0.09
same,IC50,"Panc 03.27; Homo sapiens, PANC-03-27, Panc 03.27, 120 hours, Cell Titer Glo, read-out: LGK974 IC50s in cell line proliferation assay",> 2000 nM
same,Inhibition fold change (1-Treated/Control),Panc 03.27; Panc03.27,0.06
same,Inhibition fold change (1-Treated/Control),HPAFII,0.50
same,IC50,"HPAFII; Homo sapiens, HPAF-II, 120 hours, Cell Titer Glo, read-out: LGK974 IC50s in cell line proliferation assay",33.6 nM
same,Inhibition fold change (1-Treated/Control),KP-2,0.06
same,IC50,"KP-2; Homo sapiens, 120 hours, Cell Titer Glo, read-out: LGK974 IC50s in cell line proliferation assay",> 2000 nM
same,Inhibition fold change (1-Treated/Control),PSN-1,0.06
same,IC50,"PSN-1; Homo sapiens, PSN1, 120 hours, Cell Titer Glo, read-out: LGK974 IC50s in cell line proliferation assay",> 2000 nM
same,Pathway inhibition in Axin2 qPCR assay,"Axin2, DanG",No
same,Pathway inhibition in Axin2 qPCR assay,"Axin2, PaTu-8988S",Yes
same,Pathway inhibition in Axin2 qPCR assay,"Axin2, Capan-1",No
same,Pathway inhibition in Axin2 qPCR assay,"Axin2, PaTu-8988T",Yes
same,Pathway inhibition in Axin2 qPCR assay,"Axin2, Panc10.05",Yes
same,Pathway inhibition in Axin2 qPCR assay,"Axin2, PSN-1",Yes
same,Pathway inhibition in Axin2 qPCR assay,"Axin2, Panc03.27",Yes
same,Pathway inhibition in Axin2 qPCR assay,"Axin2, BxPC3",Yes
same,Pathway inhibition in Axin2 qPCR assay,"Axin2, HuPT3",Yes
same,Pathway inhibition in Axin2 qPCR assay,"Axin2, SUIT-2",Yes
same,Pathway inhibition in Axin2 qPCR assay,"Axin2, KP2",Yes
same,Pathway inhibition in Axin2 qPCR assay,"Axin2, PANC-1",Yes
same,Pathway inhibition in Axin2 qPCR assay,"Axin2, KP3",Yes
same,Pathway inhibition in Axin2 qPCR assay,"Axin2, SW1990",Yes
same,Pathway inhibition in Axin2 qPCR assay,"Axin2, PaTu-8902",Yes
same,Pathway inhibition in Axin2 qPCR assay,"Axin2, HPAFII",Yes
same,Pathway inhibition in Axin2 qPCR assay,"Axin2, QGP-1",No
same,Pathway inhibition in Axin2 qPCR assay,"Axin2, Capan-2",Yes
same,Pathway inhibition in Axin2 qPCR assay,"Axin2, KP-1NL",Yes
same,Pathway inhibition in Axin2 qPCR assay,"Axin2, T3M4",No
same,Pathway inhibition in Axin2 qPCR assay,"Axin2, CFPAC-1",No
same,Pathway inhibition in Axin2 qPCR assay,"Axin2, PK45H",No
same,Pathway inhibition in Axin2 qPCR assay,"Axin2, MIA CaPa-2",No
same,Pathway inhibition in Axin2 qPCR assay,"Axin2, PL45",No
same,Pathway inhibition in Axin2 qPCR assay,"Axin2, HuPT4",No
same,Pathway inhibition in Axin2 qPCR assay,"Axin2, Panc05.04",Yes
same,Pathway inhibition in Axin2 qPCR assay,"Axin2, PK1",Yes
same,Pathway inhibition in Axin2 qPCR assay,"Axin2, Panc04.03",No
